“Also recorded” adds a separate entry of the source. Where two headings read alike, the source gives them in different places. Blank lines part the entries; values can stand above or below the compound they belong to.
Legend:
human P2X4 receptor [1] = biological target: T1, human P2X4 receptor (Homo sapiens, UniProt Q99571); test: Calcium influx assay, 1321N1 astrocytoma cells stably expressing human P2X4 receptor; assay type: cell-based; design: expressed in transfected cells
T1 sequence (Q99571 1-388): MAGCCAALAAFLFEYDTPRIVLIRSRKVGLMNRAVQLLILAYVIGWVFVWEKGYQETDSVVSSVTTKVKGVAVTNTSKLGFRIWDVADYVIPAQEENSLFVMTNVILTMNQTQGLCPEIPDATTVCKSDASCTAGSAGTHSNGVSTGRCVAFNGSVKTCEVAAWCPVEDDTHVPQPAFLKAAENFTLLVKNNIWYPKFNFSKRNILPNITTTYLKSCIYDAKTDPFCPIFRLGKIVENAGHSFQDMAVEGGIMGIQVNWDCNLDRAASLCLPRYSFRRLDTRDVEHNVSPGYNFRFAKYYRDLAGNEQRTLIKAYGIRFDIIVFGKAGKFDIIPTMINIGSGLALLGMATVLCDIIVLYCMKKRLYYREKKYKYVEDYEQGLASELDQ
Description: Calcium influx assays using 1321N1 astrocytoma cells that stably expressed the human P2X4 receptor were performed. Concentration-dependent inhibition of ATP-induced calcium influx was observed.
(§1) To determine the effects of the compound on P2X4, P2X2, and P2X7 receptors, the agonist-mediated increases in cytosolic Ca^2+ concentrations were measured using the fluorescent Ca^2+ chelating dye Fluo-4 acetoxymethyl ester (AM) (Thermo Fisher Scientific). On the first day, 1321N1 astrocytoma cells (45.000 cells/well) stably expressing the respective P2X receptor were seeded into a 96-well plate (No. 3340, Corning, Kennebunk, Maine, USA), and incubated at 37 °C and 10% of CO2. […]
(§2) Following the incubation, the dye solution was carefully removed, and the antagonist (dissolved in DMSO) and HBSS buffer were added to the cells. […] To activate the receptors, transparent 96-well reagent plates (Boettger, Bodenmais, Germany) containing the agonists dissolved in HBSS buffer (10-fold concentration of previously determined EC80) were prepared. The plates were measured after 30 min of preincubation with antagonist with the imaging plate reader NOVOstar (BMG Labtech GmbH, Offenburg, Germany) at 520 nm for 30 s at 0.4 s intervals.

human P2X4 receptor [2] = biological target: T1, human P2X4 receptor; test: [3H]PSB-OR-2020 radioligand binding assay, HEK293 cell membranes expressing human P2X4 receptor; design: expressed in transfected cells; host or cells: HEK293 cells, transient transfection (pQCXIN; pcDNA3.1(-) was also tried)
P2X4 receptor [3] = test system: P2X4 receptor; design: method as in PMID 36150180; details: ref [38]; cited from earlier work
P2X4 receptor [4] = test system: P2X4 receptor; design: method as in PMID 35338432; details: ref [44]; cited from earlier work
P2X4 = test system: P2X4; design: method as in PMID 30537520, PMID 34476721; details: ref [14], [36]; cited from earlier work
human P2X4 receptor [5] = biological target: T1, human P2X4 receptor; design: expressed in transfected cells; host or cells: HEK293 cells, transient transfection (pQCXIN; pcDNA3.1(-) was also tried); details: ref Müller et al. [36]; cited from earlier work
human P2X3 = biological target: T2, human P2X3 (Homo sapiens, UniProt P56373); test: Calcium influx assay, 1321N1 astrocytoma cells stably expressing human P2X3 receptor; assay type: cell-based
T2 construct: expressed in transfected cells
T2 sequence (P56373 1-397): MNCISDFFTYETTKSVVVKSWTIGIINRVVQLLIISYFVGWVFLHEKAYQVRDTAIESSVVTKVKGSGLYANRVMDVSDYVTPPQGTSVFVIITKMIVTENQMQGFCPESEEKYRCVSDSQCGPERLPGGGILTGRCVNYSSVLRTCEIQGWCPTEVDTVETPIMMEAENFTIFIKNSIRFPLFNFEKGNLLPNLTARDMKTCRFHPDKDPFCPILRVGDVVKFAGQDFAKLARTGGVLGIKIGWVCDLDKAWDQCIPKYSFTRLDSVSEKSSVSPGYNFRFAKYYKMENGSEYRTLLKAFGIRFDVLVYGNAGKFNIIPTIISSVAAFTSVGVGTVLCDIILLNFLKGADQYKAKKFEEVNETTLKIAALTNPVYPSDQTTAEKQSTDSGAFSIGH
Description: (§3) The selectivity of PSB-OR-2020 versus other P2X receptor subtypes was determined in the same type of assay using 1321N1 astrocytoma cells stably expressing the respective human P2X receptor subtype (see Table 1).
as §1, §2

human P2X2 = biological target: T3, human P2X2 (Homo sapiens, UniProt Q9UBL9); test: Calcium influx assay, 1321N1 astrocytoma cells stably expressing human P2X2 receptor; assay type: cell-based
T3 construct: expressed in transfected cells
T3 sequence (Q9UBL9 1-471): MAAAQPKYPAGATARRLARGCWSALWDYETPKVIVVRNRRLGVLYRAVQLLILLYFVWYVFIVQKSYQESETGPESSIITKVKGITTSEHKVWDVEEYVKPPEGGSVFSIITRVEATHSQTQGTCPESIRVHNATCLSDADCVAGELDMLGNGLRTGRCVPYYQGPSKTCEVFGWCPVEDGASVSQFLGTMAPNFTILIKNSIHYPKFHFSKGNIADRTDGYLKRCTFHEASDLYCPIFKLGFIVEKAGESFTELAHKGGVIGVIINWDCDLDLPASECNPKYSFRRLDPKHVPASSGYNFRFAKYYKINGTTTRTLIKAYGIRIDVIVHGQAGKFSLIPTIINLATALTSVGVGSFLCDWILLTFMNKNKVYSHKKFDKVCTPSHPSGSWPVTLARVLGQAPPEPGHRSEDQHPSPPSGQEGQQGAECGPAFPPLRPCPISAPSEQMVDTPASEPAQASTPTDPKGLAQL

human P2X1 = biological target: T4, human P2X1 (Homo sapiens, UniProt P51575); test: Calcium influx assay, 1321N1 astrocytoma cells stably expressing human P2X1 receptor; assay type: cell-based
T4 construct: expressed in transfected cells
T4 sequence (P51575 1-399): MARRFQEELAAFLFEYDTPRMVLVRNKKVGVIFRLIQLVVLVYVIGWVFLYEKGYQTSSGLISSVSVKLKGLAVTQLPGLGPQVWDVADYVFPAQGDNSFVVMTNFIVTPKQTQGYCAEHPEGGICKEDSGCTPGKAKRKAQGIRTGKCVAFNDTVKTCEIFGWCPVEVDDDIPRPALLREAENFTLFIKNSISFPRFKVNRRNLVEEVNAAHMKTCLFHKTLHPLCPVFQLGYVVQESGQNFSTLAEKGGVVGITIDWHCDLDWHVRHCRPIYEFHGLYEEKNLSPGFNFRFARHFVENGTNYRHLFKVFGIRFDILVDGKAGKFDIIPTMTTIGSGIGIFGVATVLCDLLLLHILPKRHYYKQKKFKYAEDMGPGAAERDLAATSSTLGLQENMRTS
Description: as §3, §1, §2

human P2X7 = biological target: T5, human P2X7 (Homo sapiens, UniProt Q99572); test: Calcium influx assay, 1321N1 astrocytoma cells stably expressing human P2X7 receptor (agonist Bz-ATP); assay type: cell-based; details: Bz-ATP 6,000 nM (EC80)
T5 construct: expressed in transfected cells
T5 sequence (Q99572 1-595): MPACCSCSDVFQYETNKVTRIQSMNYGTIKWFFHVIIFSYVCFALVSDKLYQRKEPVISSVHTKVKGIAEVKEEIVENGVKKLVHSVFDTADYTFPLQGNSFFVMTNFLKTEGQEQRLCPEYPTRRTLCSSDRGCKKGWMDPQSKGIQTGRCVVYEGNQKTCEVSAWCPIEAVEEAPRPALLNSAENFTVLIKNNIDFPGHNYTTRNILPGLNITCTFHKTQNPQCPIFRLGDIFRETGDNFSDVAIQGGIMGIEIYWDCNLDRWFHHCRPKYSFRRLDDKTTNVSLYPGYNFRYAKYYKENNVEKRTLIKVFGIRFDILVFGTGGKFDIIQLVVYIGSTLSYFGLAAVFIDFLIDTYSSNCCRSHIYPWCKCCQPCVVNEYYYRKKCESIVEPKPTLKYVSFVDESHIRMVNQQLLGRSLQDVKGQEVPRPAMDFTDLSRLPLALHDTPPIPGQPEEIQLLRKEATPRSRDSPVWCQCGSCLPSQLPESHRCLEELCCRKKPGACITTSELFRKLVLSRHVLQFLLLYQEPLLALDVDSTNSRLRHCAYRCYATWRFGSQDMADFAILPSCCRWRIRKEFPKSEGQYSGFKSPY
Description: as §3, §1, §2

[6] = high concentration of competitor, radioligand 10 nM
[7] = 4 °C, three independent association and dissociation experiments, read-out: kinetic KD value (koff/kon)
[8] = vs. [3H]PSB-OR-2020 (10 nM), HEK293 membranes, human P2X4, read-out: KD value, homologous competition binding
[9] = 4 °C, radioligand 10 nM, HEK293 membranes, human P2X4

EC80 concentration of agonist (human P2X4 receptor [1]; human P2X4, calcium influx): 0.3 µM
Structure (SMILES): Nc1ncnc2c1ncn2[C@@H]1O[C@H](COP(=O)(O)OP(=O)(O)OP(=O)(O)O)[C@@H](O)[C@H]1O [ATP, Adenosine 5’-triphosphate, reference compound]
displacement of [3H]PSB-OR-2020 from its binding site (human P2X4 receptor [2]; [6]): only slightly displaced; also recorded: does not compete

Structure (SMILES): CC(C)c1cc(Br)c(NC(=O)Nc2cccnc2)c(Br)c1 [BX430, reference compound]
displacement of [3H]PSB-OR-2020 from its binding site (human P2X4 receptor [2]; [6]): not or only partially be displaced
displacement of [3H]PSB-OR-2020 from its binding site (human P2X4 receptor [2]; high concentrations of competitor, radioligand 10 nM): less than 40%

Structure (SMILES): O=C1CC(=O)N(c2ccnc(-c3noc(=S)[nH]3)c2)c2ccc3ccccc3c2N1 [MRS4719]
effects in a murine ischemic stroke model (P2X4 receptor [3]): neuroprotective and neuro-rehabilitative effects

Structure (SMILES): O=C1CC(=O)N(c2cccc(-c3noc(=S)[nH]3)c2)c2ccc3ccccc3c2N1 [NP-1815-PX]
effects in a murine model of colitis (P2X4 receptor [4]): improve several inflammatory parameters

displacement of [3H]PSB-OR-2020 from its binding site (human P2X4 receptor [2]; [6]): completely displaced
Structure (SMILES): Cc1nsc(-c2ccc(C)c(NCC(=O)c3c[nH]c4ccccc34)c2)n1 [PSB-15417]
efficacy in an animal model of neuropathic pain (P2X4): showing efficacy
IC50 (human P2X4 receptor [5]): 0.0219 µM

IC50 (human P2X3): 2.03 µM
IC50 at P2X3 receptor relative to IC50 at P2X4 receptor (human P2X3; P2X3 vs P2X4 selectivity): about 300 fold
IC50 (human P2X2): > 10 µM
IC50 (human P2X1): > 10 µM
IC50 (human P2X4 receptor [1]; read-out: IC50 ± SEM, inhibition of ATP-induced Ca2+ influx): 0.00632 ± 0.00152 µM
IC50 (human P2X7): > 10 µM
Kd (human P2X4 receptor [2]; [7]): 0.00706 ± 0.00323 µM
Bmax value (human P2X4 receptor [2]; homologous competition binding, HEK293 membranes, human P2X4): 71.7 fmol/mg of protein
Kd (human P2X4 receptor [2]; [8]): 0.0204 ± 0.0075 µM
Structure (SMILES): Cc1nsc(-c2ccc(C)c(NCC(=O)N3CCc4c3cccc4[C@](C)(O)CO)c2)n1 [PSB-OR-2020, (S)-1-(4-(1,2-dihydroxypropane-2yl)indolin-1-yl)-2-((2-methyl-5-(3-methyl-1,2,4-thiadiazol-5-yl)phenyl)amino)ethane-1-one]

association half-life (human P2X4 receptor [2]; [9]): 8.44 ± 2.59 min
dissociation half-life (human P2X4 receptor [2]; [9]): 20.4 ± 2.9 min
Kd (human P2X4 receptor [2]; [7]): 0.00706 ± 0.00323 µM
Kd (human P2X4 receptor [2]; [8]): 0.0204 µM
Structure (SMILES): [3H]c1cc2c(c([C@](C)(O)CO)c1)CCN2C(=O)CNc1cc(-c2nc(C)ns2)c([3H])cc1C [[^3H]PSB-OR-2020]

From publication PMC11555173, “Preparation and preliminary evaluation of a tritium-labeled allosteric P2X4 receptor antagonist” (Purinergic Signalling, 2024)
